Source: ChEMBL document CHEMBL1139090, “Synthesis of potent and tissue-selective androgen receptor modulators (SARMs): 2-(2,2,2)-Trifluoroethyl-benzimidazole scaffold” (Bioorg Med Chem Lett, 2007)
Activity calls are given as the source filed them. The calls are words filed in the database; no cut-off is given here.

Assays:
Rattus norvegicus [1] = assay: Inhibition of prostate weight in immature Sprague-Dawley rat at 2 mg/day, sc relative to testosterone; type: functional, Prostate gland; settings: for Activity: Prostate gland
Rattus norvegicus [2] = species on record: Rattus norvegicus; assay: Stimulation of levator ani muscle weight in immature Sprague-Dawley rat at 2 mg/day relative to testosterone; type: functional
Rattus norvegicus [3] = species on record: Rattus norvegicus; assay: Stimulation of levator ani muscle weight in immature Sprague-Dawley rat; type: functional
Androgen receptor = molecular target: T1, Androgen receptor (Homo sapiens, UniProt P10275); assay: Binding affinity at androgen receptor expressed in COS cells by whole cell binding assay; type: cell-based
T1 sequence (P10275 whole entry): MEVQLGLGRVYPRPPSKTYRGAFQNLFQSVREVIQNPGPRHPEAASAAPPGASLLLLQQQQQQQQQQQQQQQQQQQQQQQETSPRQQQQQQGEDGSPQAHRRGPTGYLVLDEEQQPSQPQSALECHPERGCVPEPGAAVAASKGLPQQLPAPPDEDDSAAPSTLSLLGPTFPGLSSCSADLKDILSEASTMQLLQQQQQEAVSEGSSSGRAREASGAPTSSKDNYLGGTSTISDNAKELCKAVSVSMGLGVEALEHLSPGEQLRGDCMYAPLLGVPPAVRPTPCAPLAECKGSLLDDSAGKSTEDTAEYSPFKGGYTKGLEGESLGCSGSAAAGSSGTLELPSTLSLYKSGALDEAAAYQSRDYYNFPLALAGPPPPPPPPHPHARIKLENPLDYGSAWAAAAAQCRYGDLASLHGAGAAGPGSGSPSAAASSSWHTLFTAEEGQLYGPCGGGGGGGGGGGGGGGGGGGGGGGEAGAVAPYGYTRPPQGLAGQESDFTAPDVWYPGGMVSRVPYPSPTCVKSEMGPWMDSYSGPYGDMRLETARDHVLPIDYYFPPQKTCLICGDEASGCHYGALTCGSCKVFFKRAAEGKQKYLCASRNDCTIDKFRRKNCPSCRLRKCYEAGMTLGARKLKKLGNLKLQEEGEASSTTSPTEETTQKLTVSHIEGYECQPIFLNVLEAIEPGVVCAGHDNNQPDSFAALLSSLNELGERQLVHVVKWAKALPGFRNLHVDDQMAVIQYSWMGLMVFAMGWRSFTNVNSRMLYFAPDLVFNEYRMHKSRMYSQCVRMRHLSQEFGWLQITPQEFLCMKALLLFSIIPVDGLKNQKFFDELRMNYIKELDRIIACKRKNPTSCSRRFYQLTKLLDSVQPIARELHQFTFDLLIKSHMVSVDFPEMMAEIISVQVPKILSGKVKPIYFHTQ

Rattus norvegicus [4] = species on record: Rattus norvegicus; assay: Inhibition of prostate weight in immature Sprague-Dawley rat; type: functional, Prostate gland
Rattus norvegicus [5] = species on record: Rattus norvegicus; assay: Toxicity in immature Sprague-Dawley rat at 3 mg/day; type: organism-based; settings: in vivo
Rattus norvegicus [6] = species on record: Rattus norvegicus; assay: Stimulation of levator ani muscle weight in mature Sprague-Dawley rat; type: functional

SMILES	Inhibition (Rattus norvegicus [1])	Activity (Rattus norvegicus [2])	further results
C#CCC(O)(c1nc2cc(Cl)c(Cl)cc2[nH]1)C(F)(F)F (stereo unspecified)	68%	71%	–
CC#CC(O)(c1nc2cc(Cl)c(Cl)cc2[nH]1)C(F)(F)F (stereo unspecified)	79%	inactive	–
C=C=CC(O)(c1nc2cc(Cl)c(Cl)cc2[nH]1)C(F)(F)F (stereo unspecified)	85%	99%	ED50 (Rattus norvegicus [3]): 0.075 mg/day
CC(C)C(O)(c1nc2cc(Cl)c(Cl)cc2[nH]1)C(F)(F)F (stereo unspecified)	33%	87%	IC50 (Androgen receptor): 2 nM; ED50 (Rattus norvegicus [3]): 0.05 mg/day
C/C=C/CC(O)(c1nc2cc(Cl)c(Cl)cc2[nH]1)C(F)(F)F (stereo unspecified)	74%	10%	–
C[C@](O)(CS(=O)(=O)c1ccc(F)cc1)C(=O)Nc1ccc(C#N)c(C(F)(F)F)c1 [(R)-BICALUTAMIDE]	70%	inactive	–
FC(F)(F)C1(c2nc3cc(Cl)c(Cl)cc3[nH]2)CCCO1 (stereo unspecified)	55%	64%	–
C=C(C)C(O)(c1nc2cc(Cl)c(Cl)cc2[nH]1)C(F)(F)F (stereo unspecified)	127%	inactive	–
C=C=C(C)C(O)(c1nc2cc(Cl)c(Cl)cc2[nH]1)C(F)(F)F (stereo unspecified)	78%	15%	–
OC(Cc1ccc(F)cc1)(c1nc2cc(Cl)c(Cl)cc2[nH]1)C(F)(F)F (stereo unspecified)	72%	inactive	–
CCCC(O)(c1nc2cc(Cl)c(Cl)cc2[nH]1)C(F)(F)F (stereo unspecified)	63%	67%	–
OC(Cc1ccccc1)(c1nc2cc(Cl)c(Cl)cc2[nH]1)C(F)(F)F (stereo unspecified)	86%	inactive	–
CC(C)=CCC(O)(c1nc2cc(Cl)c(Cl)cc2[nH]1)C(F)(F)F (stereo unspecified)	71%	inactive	–
C/C=C\C(O)(c1nc2cc(Cl)c(Cl)cc2[nH]1)C(F)(F)F (stereo unspecified)	70%	73%	ED50 (Rattus norvegicus [3]): 0.11 mg/day
OC(c1ccccc1)(c1nc2cc(Cl)c(Cl)cc2[nH]1)C(F)(F)F (stereo unspecified)	61%	inactive	–
CC(C)=C(C)C(O)(c1nc2cc(Cl)c(Cl)cc2[nH]1)C(F)(F)F (stereo unspecified)	47%	inactive	–
FC(F)(F)C1(c2nc3cc(Cl)c(Cl)cc3[nH]2)C=CCN1 (stereo unspecified)	57%	8%	–
CCC(C)(C)C(O)(c1nc2cc(Cl)c(Cl)cc2[nH]1)C(F)(F)F (stereo unspecified)	42%	11%	–
C/C=C/C(O)(c1nc2cc(Cl)c(Cl)cc2[nH]1)C(F)(F)F (stereo unspecified)	61%	23%	–
OC(CSCC(F)(F)F)(c1nc2cc(Cl)c(Cl)cc2[nH]1)C(F)(F)F (stereo unspecified)	–	26%	Activity (Rattus norvegicus [1]): inactive
C=CCC(O)(c1nc2cc(Cl)c(Cl)cc2[nH]1)C(F)(F)F (stereo unspecified)	87%	34%	ID50 (Rattus norvegicus [4]): 0.67 mg/day; ED50 (Rattus norvegicus [3]): 1.4 mg/day
FC(F)(F)C1(c2nc3cc(Cl)c(Cl)cc3[nH]2)CCCN1 (stereo unspecified)	35%	4%	–
CCC(O)(c1nc2cc(Cl)c(Cl)cc2[nH]1)C(F)(F)F (stereo unspecified)	25%	106%	Activity (Rattus norvegicus [5]): Toxic
C=C(C)CC(O)(c1nc2cc(Cl)c(Cl)cc2[nH]1)C(F)(F)F (stereo unspecified)	59%	17%	–
FC(F)(F)C1(c2nc3cc(Cl)c(Cl)cc3[nH]2)C=CCO1 (stereo unspecified)	–	50%	Activity (Rattus norvegicus [1]): inactive
N#CCC(O)(c1nc2cc(Cl)c(Cl)cc2[nH]1)C(F)(F)F (stereo unspecified)	9%	126%	ED50 (Rattus norvegicus [3]): 0.03 mg/day
CC(C)=CC(O)(c1nc2cc(Cl)c(Cl)cc2[nH]1)C(F)(F)F (stereo unspecified)	45%	13%	–
C=CC(O)(c1nc2cc(Cl)c(Cl)cc2[nH]1)C(F)(F)F (stereo unspecified)	56%	82%	IC50 (Androgen receptor): 7 nM; ED50 (Rattus norvegicus [6]): < 0.3 mg/kg; ED50 (Rattus norvegicus [3]): 0.04 mg/day
CCSCC(O)(c1nc2cc(Cl)c(Cl)cc2[nH]1)C(F)(F)F (stereo unspecified)	31%	96%	IC50 (Androgen receptor): 17 nM; ED50 (Rattus norvegicus [3]): 0.1 mg/day
